Experimental data published in publication PMC8476831, “Pharmacological Characterization of Toludesvenlafaxine as a Triple Reuptake Inhibitor” (Frontiers in Pharmacology, 2021).
Read-outs that look alike come from different tables or passages of the source. Marks after values point to notes of the source that are not given here.

Assays:
CUMS rats = assay: Chronic unpredictable mild stress (CUMS) model: open field test and sucrose consumption; settings: 7.3 mg/kg oral once daily 21 days
Text: Briefly, SD rats were randomly exposed to various stressors for 3 weeks. […] No stressor was repeated within 2 days for each rat. The control group was housed in a separate room, with free access to food and water, and not disturbed.
Rats received oral administration of study drugs once daily for 21 consecutive days during the chronic stress exposure period. At the end of the chronic stress and drug treatment period, the open field test (21st day) and amount of sucrose consumption (22nd day) were determined.
(§1) Locomotor activity was measured in custom-made acrylic boxes (Height✕Width✕Length: 40✕52✕52 cm). The boxes were placed underneath cameras and all sessions (the duration of the sessions was 5 min) were recorded and data were later quantified by experimenters blinded to treatments. The bottom surface of the boxes was divided into 16 equal squares. Two parameters were quantified from the sessions: the number of squares each rat crossed with both front paws and the number of rearing episodes. Standing with two front paws off the ground was considered one episode of rearing.
(§2) Rats were exposed to 1% sucrose solution in leak-proof bottles for 1 h per day for 3 consecutive days. […] The weight difference of the bottles before and after the 2-h test was considered the total amount of sucrose consumed by the rats.

[1] = test system: olfactory bulbectomized rats; assay: Olfactory bulbectomized model: open field test, sucrose consumption, serum corticosterone and testosterone
Experimental: Thereafter, all rats received daily intragastric dosing for 20 days. The open field test on the 7th and 14th days of dosing, sucrose consumption on the 18th day of dosing, and serum levels of corticosterone and testosterone on the 20th day of dosing were determined.
as §1, §2
The serum corticosterone and testosterone levels were measured following the kit instructions.

[2] = Blood, brain and hypothalamus distribution after single intragastric dose; type: in vivo, Wistar rats; settings: rats, toludesvenlafaxine 8 mg/kg intragastric
Experimental: Total brain and hypothalamus distribution study was conducted in Wistar rats (4/sex/group) following a single intragastric dose at 8 mg/kg. […] All tissues were immediately rinsed with 200 μg/ml dichlorovos (as esterase inhibitor) ice-cold saline after collection and then were stored at −80°C until analysis using LC-MS/MS.

striatum = test system: striatum; set-up: method as in Zhang et al., 2014; settings: ref Zhang et al., 2014; cited from earlier work
[3] = 7.3 mg/kg daily, 20th day of dosing
[4] = both sexes, Wistar, rat, blood, oral, read-out: Blood concentration
[5] = both sexes, Wistar, rat, brain, oral, read-out: Brain concentration
[6] = both sexes, Wistar, rat, hypothalamus, oral, read-out: Hypothalamus concentration

Which results are given for CN(C)CC(c1ccc(O)cc1)C1(O)CCCCC1 (stereo not drawn) [DVS, desvenlafaxine succinate monohydrate]?
Sugar consumption rate (CUMS rats; day 22): 82.1 ± 7.4^d %; Numbers of squares crossed (CUMS rats; open field day 21): 47.0 ± 12.1^e; Rearing time (CUMS rats; open field day 21): 15.2 ± 3.9^d seconds; Moving distance (squares crossed) Day 7 ([1]; 7.3 mg/kg daily intragastric): 26.8 ± 7.6 squares crossed; Moving distance (squares crossed) Day 14 ([1]; 7.3 mg/kg daily intragastric): 26.7 ± 10.1 squares crossed; Rearing time Day 7 ([1]; 7.3 mg/kg daily intragastric): 7.0 ± 3.1^d seconds; Rearing time Day 14 ([1]; 7.3 mg/kg daily intragastric): 9.4 ± 3.1^d seconds; Sugar consumption rate ([1]; 7.3 mg/kg daily, 18th day of dosing): 58.1 ± 26.6%; Corticosterone (serum) [1, 3]: 394.1 ± 231.6 ng/L; Testosterone (serum) [1, 3]: 2.4 ± 1.8 ng/mL

Which results are given for CN(C)CC(c1ccc(O)cc1)C1(O)CCCCC1 (stereo not drawn) [ODV, O-desmethylvenlafaxine]?
concentration at 20 min ([2]; both sexes, Wistar, rat, blood, oral, 15 min row (footnote: detected at 20 min)): 90.9 ± 33.5 ng/mL; concentration at 1 h [2, 4]: 68.2 ± 23.6 ng/mL; concentration at 12 h [2, 4]: 2.84 ± 2.69 ng/mL; concentration at 15 min ([2]; both sexes, Wistar, rat, brain, oral, 15 min, read-out: Brain concentration): 13.8 ± 8.4 ng/g; concentration at 1 h [2, 5]: 20.9 ± 6.8 ng/g; concentration at 12 h [2, 5]: 2.06 ± 1.29 ng/g; concentration at 15 min ([2]; both sexes, Wistar, rat, hypothalamus, oral, 15 min, read-out: Hypothalamus concentration): 92.5 ng/g; concentration at 1 h [2, 6]: 97.9 ± 58 ng/g; concentration at 12 h [2, 6]: 7.22 ± 6.79 ng/g; Hypothalamus concentration ([2]; 15 min): 92.52 ± 68.23 ng/g; striatal DA level (striatum): does not increase
